Assay results published in patent US12054469B2, “Benzothiophene-based selective estrogen receptor downregulator compounds” (The Board of Trustees of the University of Illinois, priority 2015, dated 2024).

Assays:
estrogen receptor = estrogen receptor (Homo sapiens (Human), UniProt P03372); assay: Western blot analysis of estrogen receptor downregulation; assay type: cell-based; details: 10 nM
Experimental: Whole-cell extracts of cultured cells were prepared in lysis buffer (200 mmol/L Tris, 1% Triton X-100, 5 mmol/L EDTA) with protease and phosphatase inhibitor cocktails (1:50, both from Sigma-Aldrich) after scraping from the culture plates. Protein concentration was measured using the Bradford method (Bio-Rad). Proteins were separated under denaturing conditions and blotted onto nitrocellulose membrane (Bio-Rad) using a wet transfer system (Bio-Rad). Images of blots were acquired on a Bio-Rad ChemiDoc System following incubation with SuperSignal West Dura luminol solution (Thermo Fisher Scientific).

MCF-7:WS8 cells = assay: Cell viability of MCF7:WS8, DNA content assay; assay type: cell-based, human
ERα = ERα (Homo sapiens (Human), UniProt P03372); assay: In-cell western (ICW) ER downregulation/degradation in MCF-7:WS8 cells; assay type: cell-based; details: Table 2; read-out: IC50 of ER downregulation from in-cell western blot experiments
ERα, sequence (P03372 whole entry): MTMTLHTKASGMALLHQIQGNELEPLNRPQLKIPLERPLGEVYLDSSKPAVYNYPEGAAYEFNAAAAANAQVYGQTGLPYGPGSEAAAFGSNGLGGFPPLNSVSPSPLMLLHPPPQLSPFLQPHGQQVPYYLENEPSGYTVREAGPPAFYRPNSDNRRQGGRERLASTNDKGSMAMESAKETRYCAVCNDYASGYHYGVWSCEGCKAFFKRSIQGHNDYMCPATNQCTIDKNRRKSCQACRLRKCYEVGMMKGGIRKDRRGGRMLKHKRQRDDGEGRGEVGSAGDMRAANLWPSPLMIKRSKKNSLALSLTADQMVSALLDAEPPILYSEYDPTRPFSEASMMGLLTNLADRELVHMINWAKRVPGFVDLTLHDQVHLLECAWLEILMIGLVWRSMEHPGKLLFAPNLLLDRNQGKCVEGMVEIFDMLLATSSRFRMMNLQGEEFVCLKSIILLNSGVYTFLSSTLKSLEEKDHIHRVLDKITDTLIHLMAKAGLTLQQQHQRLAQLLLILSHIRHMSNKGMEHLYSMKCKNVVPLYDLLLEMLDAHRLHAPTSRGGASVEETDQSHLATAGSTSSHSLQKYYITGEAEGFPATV
MCF-7:TAM1 tumors = assay: MCF-7:TAM1 xenograft model of endocrine-resistant ER+ breast cancer; assay type: in vivo, mice; details: 100 mg/kg, oral gavage daily

estrogen receptor, sequence (P03372 whole entry): as above

Row | Estrogen receptor downregulation (western blot) (estrogen receptor) | MCF-7WS8 IC50 (MCF-7:WS8 cells) | Compound | other results
1 | downregulate the estrogen receptor | – | Cc1cc(F)ccc1C(=O)c1sc2cc(O)ccc2c1Oc1ccc(/C=C/C(=O)O)cc1 [Compound 1, (E)-3-(4-((2-(4-Fluoro-2-methylbenzoyl)-6-hydroxybenzo[b]thiophen-3-yl)oxy)phenyl)acrylic acid] | –
2 | – | No Inhiibition | O=C(O)/C=C/c1ccc(Oc2c(C(=O)c3ccc(O)cc3)sc3cc(O)ccc23)cc1 [Compound 2, (E)-3-(4-((6-Hydroxy-2-(4-hydroxybenzoyl)benzo[b]thiophen-3-yl)oxy)phenyl) acrylic acid] | –
3 | downregulate the estrogen receptor | – | CCc1ccccc1C(=O)c1sc2cc(O)ccc2c1Oc1ccc(/C=C/C(=O)O)cc1 [Compound 3, (E)-3-(4-((2-(2-Ethylbenzoyl)-6-hydroxybenzo[b]thiophen-3-yl)oxy)phenyl) acrylic acid] | –
4 | downregulate the estrogen receptor | – | Cc1ccccc1C(=O)c1sc2cc(O)ccc2c1Oc1ccc(/C=C/C(=O)O)cc1 [Compound 5, (E)-3-(4-((6-Hydroxy-2-(2-methylbenzoyl)benzo[b]thiophen-3-yl)oxy)phenyl) acrylic acid] | –
5 | downregulate the estrogen receptor | – | Cc1ccc(F)cc1C(=O)c1sc2cc(O)ccc2c1Oc1ccc(/C=C/C(=O)O)cc1 [Compound 6] | –
6 | downregulate the estrogen receptor | – | Cc1ccsc1C(=O)c1sc2cc(O)ccc2c1Oc1ccc(/C=C/C(=O)O)cc1 [Compound 7, (E)-3-(4-((6-Hydroxy-2-(3-methylthiophene-2-carbonyl)benzo[b]thiophen-3-yl)oxy)phenyl) acrylic acid] | IC50 (ERα): 4.6 nM
7 | – | No Inhibition | Cc1cc(F)ccc1C(=O)c1sc2cc(O)ccc2c1Oc1ccc(NC(=O)C(=O)O)cc1 [Compound 18, 2-((4-((2-(4-Fluoro-2-methylbenzoyl)-6-hydroxybenzo[b]thiophen-3-yl)oxy)phenyl)amino)-2-oxoacetic acid] | –
8 | – | No inhibition | Cc1ccc(C(=O)c2sc3cc(O)ccc3c2Oc2ccc(NC(=O)C(=O)O)cc2)c(C)c1 [Compound 19, 2-((4-((2-(2,4-Dimethylbenzoyl)-6-hydroxybenzo[b]thiophen-3-yl)oxy)phenyl)amino)-2-oxoacetic acid] | –
9 | – | – | CC/C(=C(\c1ccccc1)c1ccc(OCCN(C)C)cc1)c1ccccc1 [Tamoxifen, tamoxifen] | Effect on tumor (MCF-7:TAM1 tumors): entirely without effect
